Measured values: US10106542B2, “Substituted 6,7-dihydropyrazolo[1,5-a]pyrazines as negative allosteric modulators of mGluR2 receptors” (Janssen Pharmaceutica NV, priority 2013, dated 2018)

Biological target: T1, human mGlu2 receptor (Homo sapiens, UniProt Q14416)
T1 construct: expressed in transfected cells; host or cells: CHO cells (membrane preparation)
Assay: [35S]GTPγS binding assay (mGluR2 negative allosteric modulation)
Type: biochemical
Settings: for IC50: read-out: GTPγS - hmGluR2 anGT pIC50 (converted); for Emax / GTPγS - hmGluR2 anGT Emax: relative maximal effect: maximal % inhibition relative to the control glutamate response; for Emax: read-out: GTPγS - hmGluR2 anGT Emax
Experimental: 1) [^35S]GTPγS binding assay
The [^35S]GTPγS binding assay is a functional membrane-based assay used to study G-protein coupled receptor (GPCR) function whereby incorporation of a non-hydrolysable form of GTP, [^35S]GTPγS (guanosine 5′-triphosphate, labelled with […] ^35S), is measured. The G-protein a subunit catalyzes the exchange of guanosine 5′-diphosphate (GDP) by guanosine triphosphate (GTP) and on activation of the GPCR by an agonist, [^35S]GTPγS, becomes incorporated and cannot be cleaved to continue the exchange cycle (Harper (1998) Current Protocols in Pharmacology 2.6.1-10, John Wiley & Sons, Inc.). […] Here we describe the use of the [^35S]GTPγS binding assay using membranes from cells transfected with the human mGlu2 receptor and adapted from Schaffhauser et al. (Molecular Pharmacology, 2003, […]) for the detection of the negative allosteric modulation (NAM) properties of the compounds of this invention.
CHO-cells were cultured to pre-confluence and stimulated with 5 mM butyrate for 24 h. Cells were then collected by scraping in PBS and cell suspension was centrifuged (10 min at 4000 RPM in benchtop centrifuge). Supernatant was discarded and pellet gently resuspended in 50 mM Tris-HCl, pH 7.4 by mixing with an Ultra Turrax homogenizer. The suspension was centrifuged at 12,400 RPM (Sorvall F14S-6x250Y) for 10 minutes and the supernatant discarded. The pellet was homogenized in 5 mM Tris-HCl, pH 7.4 using an Ultra Turrax homogenizer and centrifuged again (13,000 RPM, 20 min, 4° C.). The final pellet was resuspended in 50 mM Tris-HCl, pH 7.4 and stored at −80° C. in appropriate aliquots before use. Protein concentration was determined by the Bradford method (Bio-Rad, USA) with bovine serum albumin as standard.
Measurement of mGluR2 negative allosteric modulatory activity of test compounds was performed as follows. Test compounds and glutamate were diluted in assay buffer containing 10 mM HEPES acid, 10 mM HEPES salt, pH 7.4, 100 mM NaCl, 3 mM MgCl2 and 10 μM GDP. Human mGlu2 receptor-containing membranes were thawed on ice and diluted in assay buffer supplemented with 18 μg/ml saponin. […] After addition of [^35S]GTPγS (f.c. 0.1 nM), assay mixtures were shaken briefly and further incubated to allow [^35S]GTPγS incorporation on activation (30 minutes, 30° C.). Final assay mixtures contained 7 μg of membrane protein in 10 mM HEPES acid, 10 mM HEPES salt, pH 7.4, 100 mM NaCl, 3 mM MgCl2, 10 μM GDP and 10 μg/ml saponin. Total reaction volume was 200 μl. Reactions were terminated by rapid filtration through Unifilter-96 GF/B plates (Perkin Elmer, Massachusetts, USA) using a 96-well filtermate universal harvester. Filters were washed 6 times with ice-cold 10 mM NaH2PO4/10 mM Na2HPO4, pH 7.4. Filters were then air-dried, and 30 μl of liquid scintillation cocktail (Microscint-O) was added to each well. Membrane-bound radioactivity was counted in a Topcount.
The concentration-response curves of representative compounds of the present invention were generated using the Lexis software interface (developed at J&J). Data were calculated as % of the control glutamate response, defined as the response that is generated upon addition of an EC80-equivalent concentration of glutamate.

[1] = membranes from CHO cells transfected with human mGlu2 receptor, glutamate 60 μM, pIC50 = −log IC50 (M)

T1 sequence (Q14416 19-872): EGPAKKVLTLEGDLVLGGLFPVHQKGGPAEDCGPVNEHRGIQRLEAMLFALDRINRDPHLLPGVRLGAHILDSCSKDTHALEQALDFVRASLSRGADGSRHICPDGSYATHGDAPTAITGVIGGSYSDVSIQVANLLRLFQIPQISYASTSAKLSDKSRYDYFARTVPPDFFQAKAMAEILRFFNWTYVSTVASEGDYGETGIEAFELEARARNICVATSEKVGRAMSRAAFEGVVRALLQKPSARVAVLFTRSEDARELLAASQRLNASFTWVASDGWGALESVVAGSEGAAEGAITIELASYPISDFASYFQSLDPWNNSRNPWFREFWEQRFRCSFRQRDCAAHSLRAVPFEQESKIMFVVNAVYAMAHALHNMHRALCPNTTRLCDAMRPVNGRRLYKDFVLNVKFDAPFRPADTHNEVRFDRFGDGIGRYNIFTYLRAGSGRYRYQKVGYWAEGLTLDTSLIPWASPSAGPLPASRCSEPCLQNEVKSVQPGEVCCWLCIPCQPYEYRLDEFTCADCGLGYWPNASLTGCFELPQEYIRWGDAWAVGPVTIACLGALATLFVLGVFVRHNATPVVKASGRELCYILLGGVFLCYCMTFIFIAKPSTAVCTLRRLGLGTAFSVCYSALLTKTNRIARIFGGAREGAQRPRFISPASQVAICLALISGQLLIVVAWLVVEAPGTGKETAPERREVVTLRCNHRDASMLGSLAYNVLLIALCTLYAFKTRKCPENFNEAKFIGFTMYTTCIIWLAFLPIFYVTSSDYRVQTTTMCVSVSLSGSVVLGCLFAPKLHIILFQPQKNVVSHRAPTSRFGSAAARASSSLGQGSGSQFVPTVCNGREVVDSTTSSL

Structure (SMILES)	IC50 [1] [M]	Emax [%]	GTPγS - hmGluR2 anGT Emax [%]	GTPγS - hmGluR2 anGT pIC50 [1]
Cc1cc(-c2cnn3c2C(=O)N(c2ccc(Cl)c(Cl)c2)CC3CF)ccn1 (single isomer, unassigned) [compound 115]	7.08e-09	108		
Cc1cc(-c2cnn3c2C(=O)N(c2ccc(Cl)c(Cl)c2)CC3CF)ccn1 (single isomer, unassigned) [compound 116]	5.62e-07		105	
COCC1CN(c2ccc(Cl)c(Cl)c2)C(=O)c2c(-c3ccnc(C)c3)cnn21 (single isomer, unassigned) [compound 118]	1.95e-08	105		
COCC1CN(c2ccc(Cl)c(Cl)c2)C(=O)c2c(-c3ccnc(C)c3)cnn21 (single isomer, unassigned) [compound 119]	2.51e-06		100	
COCC1CN(c2ccc(C(F)(F)F)cc2)C(=O)c2c(-c3ccnc(C)c3)cnn21 (single isomer, unassigned) [compound 120]	6.46e-08		106	
COCC1CN(c2ccc(C(F)(F)F)cc2)C(=O)c2c(-c3ccnc(C)c3)cnn21 (single isomer, unassigned) [compound 121]	1.62e-05		75	
CNc1cc(-c2cnn3c2C(=O)N(c2ccc(Cl)c(Cl)c2)CC3CF)ccn1 (single isomer, unassigned) [compound 184]	2.75e-07	105		
CNc1cc(-c2cnn3c2C(=O)N(c2ccc(Cl)c(Cl)c2)CC3CF)ccn1 (single isomer, unassigned) [compound 185]	6.03e-09		104	
Cc1cc(-c2cnn3c2C(=O)N(c2ccc(Cl)c(Cl)c2)C[C@@H]3C)ccn1 [6a]	4.79e-09		112	
CCOc1ccc(N2C[C@H](C)n3ncc(-c4ccnc(C)c4)c3C2=O)cc1Cl [compound 17]	4.79e-08	104		
COc1ccc(N2C[C@H](C)n3ncc(-c4ccnc(C)c4)c3C2=O)cc1Cl [compound 20]	8.71e-08	104		
Cc1cc(-c2cnn3c2C(=O)N(c2ccc(F)c(F)c2)C[C@@H]3C)ccn1 [compound 25]	1.45e-07	103		
Cc1cc(-c2cnn3c2C(=O)N(c2ccc(F)cc2)C[C@@H]3C)ccn1 [compound 28]	2.4e-07	105		
C[C@H]1CN(c2ccc(C(F)(F)F)cc2)C(=O)c2c(-c3cccnc3)cnn21 [compound 32]	5.62e-07	101		
Cc1cc(-c2cnn3c2C(=O)N(c2ccc4c(c2)OCCO4)C[C@@H]3C)ccn1 [compound 42]	3.09e-06	102		
Cc1cc(-c2cnn3c2C(=O)N(c2ccc(C(F)(F)F)c(OCCF)c2)C[C@@H]3C)ccn1 [compound 48]	7.76e-09	100		
Cc1cc(-c2cnn3c2C(=O)N(c2cccc(OC(F)(F)F)c2)C[C@@H]3C)ccn1 [compound 58]	2.19e-08	107		
Cc1cc(-c2cnn3c2C(=O)N(c2cc(F)cc(Cl)c2)C[C@@H]3C)ccn1 [compound 63]	3.39e-08	105		
Cc1cc(-c2cnn3c2C(=O)N(c2ccc(C(C)C)cc2)C[C@@H]3C)ccn1 [compound 65]	4.47e-08	106		
CCCc1ccc(N2C[C@H](C)n3ncc(-c4ccnc(C)c4)c3C2=O)cc1 [compound 66]	4.07e-08	107		
Cc1cc(-c2cnn3c2C(=O)N(c2ccc(F)c(C(F)(F)F)c2)C[C@@H]3C)ccn1 [compound 67, (7S)-5-[4-Fluoro-3-(trifluoromethyl)phenyl]-7-methyl-3-(2-methyl-4-pyridyl)-6,7-dihydropyrazolo[1,5-a]pyrazin-4-one]	6.31e-08	104		
Cc1cc(-c2cnn3c2C(=O)N(c2cc(F)cc(OC(F)F)c2)C[C@@H]3C)ccn1 [compound 69]	5.37e-08	103		

Structure (SMILES)	IC50 [1] [M]	Emax [%]	GTPγS - hmGluR2 anGT Emax [%]	GTPγS - hmGluR2 anGT pIC50 [1]
CCC1CN(c2ccc(C(F)(F)F)cc2)C(=O)c2c(-c3ccnc(C)c3)cnn21 (stereo not shown) [compound 70]		106		7.1
Cc1cc(-c2cnn3c2C(=O)N(c2ccc(C#N)c(F)c2)C[C@@H]3C)ccn1 [compound 75]	2.75e-07	100		
Cc1cc(-c2cnn3c2C(=O)N(c2ccc(C)c(F)c2)C[C@@H]3C)ccn1 [compound 76]	2.82e-07	100		
Cc1cc(-c2cnn3c2C(=O)N(c2ccccc2)C[C@@H]3C)ccn1 [compound 86]	1e-06	102		
COc1cc(-c2cnn3c2C(=O)N(c2ccc(Cl)cc2)C[C@@H]3C)ccn1 [compound 89]	4.17e-08	104		
C[C@H]1CN(c2ccc(C(F)(F)F)c(Cl)c2)C(=O)c2c(-c3ccnc(N4CC(F)C4)c3)cnn21 [compound 92]	2.95e-09	107		
CNc1cc(-c2cnn3c2C(=O)N(c2ccc(Cl)c(Cl)c2)CC3CF)ccn1 (stereo not shown) [compound 93]	1.82e-08	105		
C[C@H]1CN(c2ccc(C(F)(F)F)cc2)C(=O)c2c(-c3ccnc(N4CC(F)C4)c3)cnn21 [compound 94]	5.5e-08	108		
C[C@H]1CN(c2ccc(C(F)(F)F)c(Cl)c2)C(=O)c2c(-c3ccnc(N4CCC4)c3)cnn21 [compound 96]	1.23e-09	108		
C[C@H]1CN(c2ccc(Cl)c(Cl)c2)C(=O)c2c(-c3ccnc(N4CCC4)c3)cnn21 [compound 97]	1.66e-09	104		
Cc1cc(-c2cnn3c2C(=O)N(c2ccc(C(F)(F)F)c(CF)c2)C[C@@H]3C)ccn1 [compound 98]	6.46e-09	111		
CC(=O)N1CCN(c2cc(-c3cnn4c3C(=O)N(c3ccc(C(F)(F)F)cc3)C[C@@H]4C)ccn2)CC1 [compound 106, (7S)-3-[2-(4-Acetylpiperazin-1-yl)-4-pyridyl]-7-methyl-5-[4-(trifluoromethyl)phenyl]-6,7-dihydropyrazolo[1,5-a]pyrazin-4-one]	6.03e-07	109		
C[C@H]1CN(c2ccc(C(F)(F)F)cc2)C(=O)c2c(-c3ccnc(N4CCCCC4)c3)cnn21 [compound 107]	1.78e-08	114		
Cc1cc(-c2cnn3c2C(=O)N(c2ccc(C(C)C(F)(F)F)cc2)C[C@@H]3C)ccn1 (stereo partly shown) [compound 113]	9.12e-08	103		
C[C@H]1CN(c2ccc(Cl)c(Cl)c2)C(=O)c2c(-c3ccnc(CF)c3)cnn21 [compound 117]	7.59e-09	109		
C[C@H]1CN(c2ccc(Cl)c(Cl)c2)C(=O)c2c(-c3ccnc(C4CC4)c3)cnn21 [compound 122]	3.72e-09	108		
CCOc1cc(-c2cnn3c2C(=O)N(c2ccc(Cl)c(Cl)c2)C[C@@H]3C)ccn1 [compound 133]	8.32e-09	104		
CCc1cc(-c2cnn3c2C(=O)N(c2ccc(Cl)c(Cl)c2)C[C@@H]3C)ccn1 [compound 134]	3.24e-09	104		
CC(C)Oc1cc(-c2cnn3c2C(=O)N(c2ccc(Cl)c(Cl)c2)C[C@@H]3C)ccn1 [compound 137]	1.82e-08	107		
CC(C)Oc1cc(-c2cnn3c2C(=O)N(c2ccc(C(F)(F)F)cc2)C[C@@H]3C)ccn1 [compound 138]	6.76e-08	105		
Cc1cc(-c2cnn3c2C(=O)N(c2ccc(Br)cc2)C[C@@H]3C)ccn1 [compound 139]	3.63e-08	106		
Cc1cc(-c2cnn3c2C(=O)N(c2ccc(C(C)(C)C)cc2)C[C@@H]3C)ccn1 [compound 141]	6.17e-08	102		
